Test results taken from PMC11215077, “Antiviral activity of temporin-1CEb analogues against gingival infection with herpes simplex virus type 1” (Frontiers in Oral Health, 2024).
Square brackets hold non-standard residues; d marks the D form. Peptide text beside a SMILES is read from it. AEEA = NCCOCCOCC(=O)O

Key:
HSV-1 = assay: Antiviral activity in 3D organotypic model of human gingiva (OTG); type: cell-based, herpes simplex virus type 1
Procedure: Protocol was described previously ([34]). Briefly, to prepare 3D cultures, 150,000 gingival fibroblasts suspended in 10% FBS in DMEM were mixed with 2.4 ml of ice-cold Matrigel® (Corning) (final concentration 7 mg/ml) and placed in the middle of 12-well cell culture inserts (Greiner). Three days later, 1 × 10^6 TIGK cells suspended in EPM1 were added to the top of the insert. On the ninth day after the start of the procedure, the old culture medium was removed and EPM2 was added to the bottom of the insert. The epithelial layer on the top was exposed to the air, which promotes epithelial differentiation and then stratification. About 8–10 days after air-liquid interphase, 3D cultures of gingiva were used for further experiments.
The apical surface of OTG model was washed three times with PBS and then inoculated with 100 μl of viral stock (TCID50 400 /ml) in the presence of DAL-PEG-LK6 or CPP1-PEG-LK6 (15 μg/ml) for 2 h at 4°C. Following incubation, the unbound HSV-1 was removed by washing with PBS for 10 min at 37°C, and the OTG cultures were maintained at an air-liquid interface for the rest of the experiment. To determine viral yield, 120 μl of PBS was applied to the apical surface of the OTG, and harvested for DNA isolation after 10 min of incubation at 37°C.
Briefly, cell inserts were fixed in 10% formaldehyde at 4°C for 1 h. After embedding in paraffin, 3D cultures were cut into 5 μm sections and stained with H&E solution. For immunohistochemical analysis, slides were incubated for 1 h at room temperature in blocking buffer (5% normal goat serum, 0.1% saponin in PBS) and stained with primary antibodies anti-HSV-1 (1:100, 1% normal goat serum, 0.1% saponin in PBS; Abcam) and secondary antibodies: goat anti-rabbit conjugated with Alexa Fluor 488 (1:2000; Cell Signaling). Finally, cell nuclei were stained with ProLong Antifade Mounting Medium with DAPI. Slides were visualized with EVOS FL Cell Imaging System (Thermo Fisher Scientific).
Viral DNA was isolated from the conditioned media or the apical washes of inserts (OTG model) using Viral DNA/RNA Isolation Kit (A&A Biotechnology). The virus yield assessed by quantitative real-time PCR (qPCR). The reaction was carried out in a CFX96 Touch Real-Time PCR Detection System (Bio-Rad), in a 10 μl reaction mixture consisting of TaqMan^TM Fast Advanced Master Mix, TaqMan^TM Microbe Detection assay against HSV-1 (Vi04230116_s1) and 1 μl of viral DNA. The temperature profile was 10 s at 95°C, followed by 40 cycles of 3 s at 95°C and 20 s at 60°C. DNA quantification standards were prepared. In summary, a fragment of viral DNA was amplified using the primers listed above and cloned into the pTZ57R/T plasmid using the InsTAclone PCR cloning kit. The plasmid was propagated in E. coli, purified with the GeneJet Plasmid Miniprep Kit, and digested with the EcoR1 restriction enzyme. The number of copies per mL was estimated after the concentration of linearized DNA was assessed spectrophotometrically.

[1] = system: HSV-1 clinical strains (294.1, 615.9, C08R, C10B); assay: Viral replication assay with HSV-1 clinical strains; type: cell-based, herpes simplex virus type 1; conditions: 15 μg/ml, qPCR 48 h p.i.
Procedure: HSV-1 strain F was acquired from American Type Culture Collection (VR 733). Clinical isolates of HSV-1 (294.1, 615.9, C08R, C10B) were kindly provided by Donald M. Coen from Department of Biological Chemistry and Molecular Pharmacology, Harvard Medical School, Boston. HSV-1 strains were propagated and titrated on Vero cells.
Vero E6 or TIGKs cells were seeded in 12-well plates and cultured for 48 h. Next, the medium was removed and replaced with a fresh medium supplemented with DAL-PEG-LK6 and CPP1-PEG-LK6 (15 μg/ml). After 30 min of incubation at 37°C, cells were infected with HSV-1 at TCID50 400 /ml or treated with mock. After 2 h of infection at 37°C, unbound viral particles were removed by washing with PBS, and culture media supplemented with peptide conjugates were applied. Following 48 h of incubation, media were collected, and the quantity of HSV-1 DNA copies was assessed using titration and qPCR.
Viral DNA was isolated from the conditioned media or the apical washes of inserts (OTG model) using Viral DNA/RNA Isolation Kit (A&A Biotechnology). The virus yield assessed by quantitative real-time PCR (qPCR). […] DNA quantification standards were prepared. […] The number of copies per mL was estimated after the concentration of linearized DNA was assessed spectrophotometrically.

[2] = Confocal colocalization of CFS-labelled conjugate with HS on TIGKs cells; type: cell-based; conditions: CFS-labelled conjugate 15 μg/ml, 30 min at 4°C, average ± SEM
Procedure: To examine the colocalization of HS on the cell surface with tested peptide conjugate we treated TIGKs cells with CFS stained CPP1-PEG-LK6 (15 μg/ml) for 30 min at 4°C. Then cells were washed with cold PBS and fixed with 3.7% formaldehyde for 30 min. Afterwards, TIGKs cells were stained with primary antibodies (1:100; rat anti-HS, Abcam) for 2 h at room temperature. The cells were then incubated with secondary antibodies (1:1,000; goat anti-rat conjugated with Alexa Fluor 568, Cell Signaling) and with Alexa Fluor 633 Phalloidin. Next, the coverslips were placed on glass slide with ProLong Antifade Mounting Medium with DAPI and visualized using a confocal laser scanning microscope (LSM 880; Zeiss).

Compound: CC[C@H](C)[C@H](NC(=O)COCCOCCNC(=O)[C@@H](NC(=O)[C@H](CC(C)C)NC(=O)[C@H](Cc1ccc(O)cc1)NC(=O)[C@@H](NC(=O)[C@H](Cc1ccccc1)NC(=O)[C@@H]1CCCN1)C(C)C)[C@@H](C)CC)C(=O)N[C@@H](CCCCN)C(=O)N[C@@H](CCCCN)C(=O)N[C@H](C(=O)N[C@@H](CC(C)C)C(=O)N[C@@H](CO)C(=O)N[C@@H](CCCCN)C(=O)N[C@H](C(=O)N[C@@H](CCCCN)C(=O)N[C@@H](CCCCN)C(=O)N[C@@H](CC(C)C)C(=O)N[C@@H](CC(C)C)C(=O)N[C@@H](CCCCN)C(N)=O)[C@@H](C)CC)[C@@H](C)CC [CPP1-PEG-LK6] (H-PFVYLI[AEEA]IKKILSKIKKLLK-NH2)
- reduction of viral yield in OTG at 48 h (HSV-1; 15 μg/ml during inoculation 2 h at 4°C, apical washes, qPCR, 48 h post-viral inoculation): 3 logs
- reduction of viral yield in OTG at 72 h (HSV-1; 15 μg/ml during inoculation 2 h at 4°C, apical washes, qPCR, 72 h post-viral inoculation): 2 logs
- morphology of epithelial cells in OTG (H&E) (HSV-1; 15 μg/ml, H&E stained sections, Figure 5A): no changes in the morphology of epithelial cells
- HSV-1-positive cells in OTG sections (immunohistology) (HSV-1; 15 μg/ml, anti-HSV-1 immunofluorescence, Figure 5B): absent
- activity against HSV-1 clinical strains ([1]; Figure 4): inhibits all selected HSV-1 clinical strains
- inhibition of replication of clinical strains ([1]; all tested strains: 294.1, C08R (drug-sensitive), 615.9, C10B (drug-resistant)): ~3 logs
- colocalization with HS, Manders overlap coefficient [2]: 0.93 ± 0.01
- colocalization with HS, Pearson's correlation [2]: 0.82 ± 0.02
